Experimental data taken from patent US7074770B1, “Method of DNA vaccination” (SmithKline Beecham Corporation, priority 1998, dated 2006).
Entries after “also recorded” stand apart in the source; their conditions may differ. Read-outs that look alike come from different tables or passages of the source.

Columns and labels:
[1] = system: EL4 cells pulsed with H-2 Db-restricted NP peptide; assay: Lytic CTL response after gene gun NP DNA immunisation (europium release); format: in vivo, C57Bl/6 mice; settings: gene gun NP plasmid 10 ng; tucaresol s.c. 1 mg or oral 15 mg/kg x5 days; FIG. 9
Procedure: C57B1/6 mice were immunised with plasmid DNA encoding the influenza virus nucleoprotein with or without tucaresol given subcutaneously (FIG. 9a) or orally (FIG. 9b). Splenocytes were restimulated in-vitro with A/PR8/34 virus. Standard europium release techniques were used to determine specific lysis of MHC matched target cells pulsed with H-2 D^b-restricted NP peptide.
C57BI/6 mice were immunised with plasmid DNA (10 ng) encoding the influenza virus nucleoprotein (NP) with and without tucaresol given sub-cutaneously (sc). Mice were killed 14 days post-immunisation and restimulated in-vitro (5 days) with irradiated splenocytes pulsed with virus (A/PR8/34). Standard europium release techniques were used to determine specific lysis of MHC-matched target cells (EL4 cells) pulsed with H-2 D^b-restricted NP peptide. Non-specific lysis was less than 15% for all controls. Tucaresol was given subcutaneously (1 mg) at the site of intrepidermal gene-gun immunisation.
C57B1/6 mice were immunised with plasmid DNA (10 ng) encoding the influenza virus nucleoprotein (NP) with and without tucaresol given orally. Mice were killed 14 days post-immunisation and restimulated in-vitro (5 days) with irradiated splenocytes pulsed with virus (A/PR8/34). Standard europium release techniques were used to determine specific lysis of EL4 cells pulsed with H-2D^b-restricted NP peptide. […]

CD4 Th-cells = settings: previously reported (22); cited from earlier work
[2] = system: splenocytes re-stimulated with NP peptide; format: in vivo, C57BL/6 mice; settings: pVAC1.PR gene gun
[3] = system: mycobacterial hsp65 (M.hsp65); format: in vivo, mice
[4] = system: Jk-A2/kb target cells pulsed with M.hsp65 peptide; format: in vivo, HLA A2 transgenic mice
S6C-E4 tumour cells = assay: Tumour outgrowth inhibition in vivo after EBNA-4 plasmid immunisation; parameters: species or system ACA mice; settings: i.m. 40 μg E4 x3, tucaresol 200 μg s.c. days 1-4; challenge with S6C-E4 s.c.; FIG. 7
Procedure: Groups of ACA mice were immunised three times with p3, E4 or E4,T, and were subsequently challenged with […] S6C tumour cells. Mice were sacrificed when tumour diameter reached 20 mm.
Epstein Barr virus has been implicated in some cancers. We analysed the effect of tucaresol on tumour outgrowth inhibition in vivo as a result of pDNA vaccination with a plasmid expressing EBNA-4 (FIG. 7). Mice were immunised by intramuscular injection with 40 μg of either control mock plasmid pCDNA3 (P3), plasmid expressing EBNA-4 (E4) or plasmid expressing EBNA-4 followed 1, 2, 3 and 4 days later with administration of 200 μg of tucaresol s.c.—i.e. 800 μg total tucaresol per mouse (E4T). This immunisation schedule was repeated 1 month and 2 months after the initial immunisation. Two weeks after the last immunisation mice were challenged with […] S6C-E4 tumour cells s.c. Mice were sacrificed when the tumour reached a 20 mm diameter.

[5] = system: lymph node T cells (response to ovalbumin peptide); assay: T-cell priming after gene gun DNA immunisation (pVAC1.Ova) with conventional adjuvants; format: in vivo, mice; settings: gene gun pVAC1.Ova with or without adjuvants given s.c.; 3 days later
From the text: Proliferation of lymph node T cells in response to pDNA or DNA encoding ovalbumin (PVAC1.Ova) in isolation and in combination with adjuvants LPS, CFA, GM-CSF and Heat-Killed Listeria monocytogenes (HKLM).
Lymphoid cells from TCR-transgenic mice, expressing a receptor specific for an ovalbumin antigen were transferred into normal syngeneic mice. These mice were then immunised subcutaneously (by means of gene gun) with plasmid DNA (pVAC1) or with plasmid DNA construct encoding ovalbumin (pVAC1.Ova) with or without adjuvants given subcutaneously. Three days later, regional lymph node cells were removed and their proliferative response to ovalbumin peptide was measured by means of incorporation of tritiated thymidine into DNA. This provides a measure of the degree of specific T-cell priming that occurred in vivo in response to immunisation. […] However, in contrast to the conventional peptide immunisation, none of the adjuvants were able to enhance this response to DNA immunisation.

Molecule | lytic CTL response (specific lysis) [1] | CD4 Th-cell response (CD4 Th-cells) | CTL cytokine response (IFNγ positive cells per 10e6 splenocytes) ([2]; tucaresol oral gavage 15 mg/kg daily for 5 days) | CTL cytokine response (IFNγ positive cells per 10e6 splenocytes) ([2]; tucaresol s.c. 2×1 mg at site of DNA vaccination) | IgG2a anti-M.hsp65 antibody response (Th1 associated) ([3]; FIG. 3b) | IgG1 anti-M.hsp65 antibody response (Th2 associated) ([3]; compared to p3 immunised mice, FIG. 3c) | specific antibody response with control plasmid ([3]; control plasmid p3 and tucaresol (p3, T)) | anti-M.hsp65 antibody (IgG) titres ([3]; i.m. 20 μg p3M.65, tucaresol 1 mg s.c. simultaneously or cytokine plasmids equimolar, FIG. 3a) | CTL activity against target cells pulsed with the cognate M.hsp65 epitope ([4]; immunised twice, splenocytes stimulated with peptide, FIG. 6) | lytic activity against Jk-A2/kb cells unpulsed or pulsed with control influenza peptide ([4]; mouse, in vivo) | tumour outgrowth inhibition (S6C-E4 tumour cells) | T-cell priming in response to DNA immunisation [5]
O=Cc1c(O)cccc1OCc1ccc(C(=O)O)cc1 [tucaresol, 4-(2-formyl-3-hydroxyphenoxymethyl)benzoic acid] | Enhances | enhanced CD4 Th-cell response, selectively favouring a Th 1-type profile over Th 2 | doubling of the response | small but significant increase | significantly (P=0.003) increased; also recorded: strongly enhanced | did also induce | no increase in the specific antibody response | markedly increased; also recorded: comparable to the effect of the GM-CSF plasmid | high CTL activity; also recorded: markedly enhanced | much lower | significantly enhances; also recorded: markedly enhanced | –
GM-CSF: GM-CSF given as adjuvant with DNA immunisation (protein, UniProt P01587 18-141, looked up) Granulocyte-macrophage …: APTRSPITVTRPWKHVEAIKEALNLLDDMPVTLNEEVEVVSNEFSFKKLTCVQTRLKIFEQGLRGNFTKLKGALNMTASYYQTYCPPTPETDCETQVTTYADFIDSLKTFLTDIPFECKKPGQK | – | – | – | – | – | – | – | – | – | – | – | failed to enhance the response
